Results from BindingDB's records for doi:10.1021/jm9602571 (Dupont Pharmaceuticals, 1996).

Target: T1, Dimer of Gag-Pol polyprotein [501-599] (Human immunodeficiency virus 1, UniProt P03367)
T1 construct: 501-599
Assay: Protease Inhibition Assay
Details: pH 5.5; 37 °C

SMILES	Ki
Nc1cccc(CN2C(=O)N(Cc3cccc(N)c3)[C@H](Cc3ccccc3)[C@H](O)[C@@H](O)[C@H]2Cc2ccccc2)c1	0.34 nM
O=C1N(CC2CCCC2)[C@H](Cc2ccccc2)[C@H](O)[C@@H](O)[C@@H](Cc2ccccc2)N1CC1CCCC1	4 nM
